Assay results published in PMC7139549, “TLD1433 Photosensitizer Inhibits Conjunctival Melanoma Cells in Zebrafish Ectopic and Orthotopic Tumour Models” (Cancers, 2020).

Assays:
[1] = test system: CRMM2 engrafted cells in zebrafish orthotopic model; experiment: In situ TUNEL assay, CRMM2 orthotopic zebrafish model; format: in vivo, Zebrafish (Danio rerio); settings: RO 2.3 mM
Description: In situ TUNEL assay on fixed embryos was used to detect TLD1433 induced apoptosis in zebrafish CRMM1 and CRMM2 orthotopic tumour models at 4 dpi after light activation of 2.3 mM TLD1433, administrated by retro orbital injection. The DNA strand breaks in apoptotic tumour cells were stained with fluorescein and visualized as a green signal.
Figure 10 TUNEL assay of in CRMM1 and CRMM2 orthotopic model after RO of TLD1433. Red fluorescent CRMM1 (A) and CRMM2 (B) cells were injected at 2dpf behind the ZF eye and divided into four groups for drug treatment. RO administration of vehicle control and TLD1433 was performed as described in Figure 9C,E. After dark or light exposure (21 mW/cm^2, 114 J.cm^−2, 520 nm) embryos were fixed and TUNEL staining was performed. Representative images of embryos are shown in this figure. (A,B) In TLD1433 light groups nuclear DNA fragmentation by nucleases is detected by co-localization of green (DNA fragments) and red signal of engrafted CM cells, depicted as yellow signal and marked by white arrows. In control dark, control light, TLD1433 dark, there are no positive green apoptotic tumour cells observed. […] Experiment was performed 3 times with a group size of 10 embryos.
The zebrafish larvae were fixed overnight with 4% PFA at 4 °C. Embryos were washed in PBST for 5 min and dehydrated by a graded methanol series until reaching 100% methanol. […]

[2] = test system: CRMM2 cells; experiment: Annexin-V-FITC / Propidium Iodide FACS, CRMM2; format: cell-based, Human
From the text: Depending on the nature and intracellular localization of a PS, the light dose, and the cell type, PDT is known to provoke either necrosis, apoptosis, or autophagy. In order to investigate the death mechanism induced by green light-activated TLD1433 in CRMM1 and CRMM2 cells, the cells were stained with Annexin V and propidium iodide, and further analysed by fluorescence-activated cell sorting (FACS).
Figure 3 Green light irradiation of TLD1433 induces apoptosis and necrosis in CRMM1 and CRMM2 cells. (A) CRMM1 and (C) CRMM2 were stained with Annexin-V-FITC and Propidium Iodide. The percentages of live, early apoptotic, later apoptotic and necrotic cells in CRMM1 (B) and CRMM2 (D) were counted by FACS. Results are presented as means ± SD from three independent experiments. […]

Cc1ccnc(-c2cc(C)ccn2)c1.Cc1ccnc(-c2cc(C)ccn2)c1.[Cl-].[Cl-].[Ru+2].c1csc(-c2ccc(-c3ccc(-c4nc5c6cccnc6c6ncccc6c5[nH]4)s3)s2)c1 [TLD1433]
TUNEL apoptosis of engrafted cells (in words) ([1]; dark, 4 dpi): no positive green signal detected
TUNEL apoptosis of engrafted cells (in words) ([1]; light 114 J.cm^−2, 4 dpi): induced CRMM1 and CRMM2 cell apoptosis
cell fate by FACS (in words) ([2]; CRMM2, dark TLD1433 group): most cells were found alive
cell fate by FACS (in words) ([2]; CRMM2, light-activated TLD1433 group): about half of the cells were found dead
